Measured values as given in patent US8809581B2, “Method of making 6-aminocaproic acid as active pharmaceutical ingredient” (Sunny pharmtech Inc., priority 2012, dated 2014).

Assay: water solubility
Assay type: physicochemical
Settings: in water (substance/water)

solubility: > 500 mg/mL
Compound: NCCCCCC(=O)O [6-aminocaproic acid]
